# According to publication PMC5342446, “Healthy CD4^+ T lymphocytes are not affected by targeted therapies against the PI3K/Akt/mTOR pathway in T-cell acute lymphoblastic leukemia” (Oncotarget, 2016):
# Residues, ends and D or L forms follow the SMILES beside them. *: point of attachment. Cbz = O=C(OCc1ccccc1)*; CH2F = FC*
# Columns and labels:
# stimulated T lymphocytes = experiment: MTT cell viability assay, stimulated (phytohemagglutinin) CD4+ T lymphocytes; assay type: cell-based, human; conditions: for effect on cell viability, alone: 24 h; for IC50: Homo sapiens, T-lymphocyte, 48 h, read-out: IC50 values of cells treated for 48 hours
# Procedure: (§1) To determine how these inhibitors could affect the viability of the primary CD4^+ T lymphocytes (both unstimulated and stimulated) and T-ALL cells, we performed MTT assays. […] Except for the unstimulated T lymphocytes, BGT226 and the mTORC1/2 inhibitor Torin-2 turned out to be the most powerful drugs in these cells. For unstimulated T lymphocytes, there was no relevant inhibition for both drugs (IC50 > 2 μM).
# (§2) Peripheral Blood CD4+ T lymphocytes from healthy donors were obtained with informed consent according to institutional guidelines and isolated with Ficoll-Paque and magnetic beads labelling protocols (Dynabeads, Monza MI, Italy). Whole blood or buffy coat were diluted with PBS containing 0.1% BSA and 0.6% Na-citrate or 2 mM EDTA (without Ca2+ and Mg2+) in ratio 1:1. Thirty-five ml of the diluted sample were layered over 15 ml of Ficoll-Paque medium and centrifuged at 600 g for 40 minutes at 20°C. The peripheral blood mononuclear cell (PMNC) layer was transferred to centrifuge tube containing three volumes of PBS and centrifuged at 100 g for 10 minutes at 20°C. This step was repeated twice, supernatant was discarded and cells were suspended in complete RPMI-1640 medium.
# (§3) 500 μl PMNC were transferred into a test tube, at a density of 5 × 10^7 cells/ml supplemented with100 μl of heat inactivated FBS and antibody mix and incubated at 4°C for 20 minutes. Followed by addition of 4 ml isolation buffer and centrifuged at 350 g at 4°C for 8 minutes. The supernatant discarded, and the pelleted cells were suspended in 500 μl of isolation buffer, added with 500 μl of pre-warmed dynabeads and incubated for 15 min at 20°C. The cells bound to beads were resuspended using 4 ml isolation buffer. The supernatant containing the human CD4^+ T lymphocytes was obtained by placing the resuspended cells in magnet for 2 minutes. The human CD4^+ T lymphocytes were grown in complete RPMI-1640 medium with 10μg/ml phytohemagglutinin at a density of 1 × 10^6 cells/ml, in a CO2 incubator at 37°C for 24 h.
# (§4) MTT (3-[4,5-Dimethylthythiazol-2-yl]-2,5-Diphenyltetrazolium Bromide) assays were performed to assess the sensitivity of cells to drugs, as described.
# JURKAT cells = experiment: MTT cell viability assay, JURKAT; assay type: cell-based, human; conditions: for effect on cell viability, alone: 24 h; for IC50: Homo sapiens, 48 h, read-out: IC50 values of cells treated for 48 hours
# Procedure: as §1
# (§5) T-acute lymphoblastic leukemia cell lines obtained from Deutsche Sammlung von Mikroorganismen und Zellkulturen GmbH (Braunschweig, Germany). JURKAT and MOLT-4 were maintained in RPMI-1640 medium supplemented with 10% heat-inactivated fetal bovine serum (FBS), 100 units/ml penicillin and […] streptomycin at a density of 0.5 to 2 × 10^6 cells/ml and were incubated at 37°C with 5% CO2.
# as §4
# [1] = tested on: unstimulated T lymphocytes; experiment: MTT cell viability assay, unstimulated CD4+ T lymphocytes; assay type: cell-based; conditions: Homo sapiens, T-lymphocyte, 48 h, read-out: IC50 values of cells treated for 48 hours
# Procedure: To determine how these inhibitors could affect the viability of the primary CD4^+ T lymphocytes (both unstimulated and stimulated) and T-ALL cells, we performed MTT assays. Cells were incubated for 48 h with the inhibitors, and then cell survival was analyzed (Figure 2A and Table 1). Except for the unstimulated T lymphocytes, BGT226 and the mTORC1/2 inhibitor Torin-2 turned out to be the most powerful drugs in these cells. For unstimulated T lymphocytes, there was no relevant inhibition for both drugs (IC50 > 2 μM).
# as §2, §3, §4
# MOLT-4 cells = experiment: MTT cell viability assay, MOLT-4; assay type: cell-based, human; conditions: for IC50: Homo sapiens, MOLT-4, MTT, 48 h, read-out: IC50 values of cells treated for 48 hours
# Procedure: as §1, §5, §4
SMILES,IC50 (MOLT-4 cells) [µM],IC50 (JURKAT cells) [µM],IC50 [1] [µM],IC50 (stimulated T lymphocytes) [µM],other results
"Cn1cnc(N)c2ncnc1-2 [3-MA, 3-Methyladenine]",,,,,"effect on cell viability, alone (stimulated T lymphocytes; even at 10 μM): did not affect cell viability; effect on cell viability, alone (JURKAT cells; even at 10 μM): did not affect cell viability"
CO/C1=C\C(C)=C\[C@@H](C)[C@@H](O)[C@@H](C)C/C(C)=C/C=C/[C@H](OC)[C@@H]([C@@H](C)[C@@H](O)[C@H](C)[C@@]2(O)C[C@@H](O)[C@H](C)[C@@H](C(C)C)O2)OC1=O [Bafilomycin A1],,,,,"effect on cell viability, alone (stimulated T lymphocytes; even at 4 μM): did not affect cell viability; effect on cell viability, alone (JURKAT cells; even at 4 μM): did not affect cell viability"
COc1ccc(-c2ccc3ncc4c(c3c2)n(-c2ccc(N3CCNCC3)c(C(F)(F)F)c2)c(=O)n4C)cn1 [BGT226],0.06,0.08,> 2,1.61,
COC(=O)C[C@H](NC(=O)[C@H](C)NC(=O)[C@@H](NC(=O)OCc1ccccc1)C(C)C)C(=O)CF [z-VAD-fmk] (Cbz-Val-Ala-Asp(OMe)-CH2F),,,,,"effect on cell viability, alone (stimulated T lymphocytes; 25 μM): no relevant effect on cell viability; effect on cell viability, alone (MOLT-4 cells; MOLT-4, alone, 25 μM, 24 h, MTT): no relevant effect on cell viability"

# Further lines, with some results ahead:
IC50 (MOLT-4 cells) [µM],IC50 (JURKAT cells) [µM],SMILES,IC50 [1] [µM],IC50 (stimulated T lymphocytes) [µM],other results
1.58,> 2,NC1(c2ccc(-c3nc4ccn5c(=O)[nH]nc5c4cc3-c3ccccc3)cc2)CCC1 [MK-2206],> 2,> 2,
0.52,0.95,FC(F)c1nc2ccccc2n1-c1nc(N2CCOCC2)nc(N2CCOCC2)n1 [ZSTK474],> 2,> 2,
0.1,0.1,"Nc1ccc(-c2ccc3ncc4ccc(=O)n(-c5cccc(C(F)(F)F)c5)c4c3c2)cn1 [Torin-2, 9-(6-aminopyridin-3-yl)-1-(3-(trifluoromethyl)phenyl)benzo[h][1,6]naphthyridin-2(1H)-one]",> 2,1.8,
